Data from US11058654B2, “Compositions and methods for the treatment of hemoglobinopathies and thalassemias” (AXCELLA HEALTH INC., priority 2018, dated 2021).

Tested on: IL-6
Test: LPS-induced IL-6 secretion in primary human PBMC-derived macrophages (ELISA)
Type: cell-based
Conditions: for effect on LPS-induced IL-6 secretion: in words
Protocol: Unpurified buffy coats (Research Blood Components) were carefully poured into 50 mL centrifuge tubes and diluted with room temperature Dulbecco's Phosphate Buffered Saline (dPBS) with Calcium and Magnesium (Gibco). Diluted buffy coats were further divided into four total 50 mL centrifuge tubes at 20 mL per tube. Lymphocyte Separation Medium (Corning) was carefully pipetted to the bottom of each centrifuge tube. Mixtures were centrifuged at 850× g for 32 minutes at 20° C. with 0 deceleration and acceleration.
The PBMC layer was separated from other components after centrifugation and added to new 50 mL centrifuge tube containing 25 mL dPBS. Total volume was brought up to 50 mL with dPBS and centrifuged at 600× g for 10 minutes at 20° C. with acceleration of 9, deceleration of 5. Supernatant was carefully removed from cell pellets. The cell pellets were resuspended using 10 mL dPBS. Total volume was then brought up to 50 mL using dPBS and centrifuged at 450× g for 5 min at 20° C. with acceleration of 9, deceleration of 9. The supernatant removal and cell pellet resuspension was repeated again.
The supernatant was then carefully removed from cell pellets. Cell pellets were resuspended in 10 mL dPBS without calcium or magnesium and filtered through a 70 uM cell strainer. The total PBMC number was determined using a Cellometer K2 automated cell counter. A total of 5E6 cells were saved for flow cytometric analysis. Remaining cells were centrifuged at 490× g for 5 minutes at 20° C. with acceleration of 9, deceleration of 9.
CD14+ cells were selected using EasySep™ Human CD14 Positive Selection Kit II ([…] Technologies). Cells were resuspended in cold EasySep™ Buffer ([…] Technologies) at 1×10^8 cells/mL. A total of 100 uL/mL EasySep™ Human CD14 Positive Selection Cocktail II was added to the cell suspension, mixed, and incubated at room temperature for 10 minutes. A total of 100 uL/mL RapidSpheres were added to the mixture and incubated at room temperature for 3 minutes after mixing, then RoboSep buffer was added to bring up the total volume to 10 mL. The mixture in a 15 mL tube was placed in magnet and incubated at room temperature for 3 minutes. Supernatant was discarded and 10 mL fresh EasySep™ buffer was added to 15 mL tube. The addition of RoboSep buffer, mixing, and discarding of supernatant was repeated two more times.
Negative and positive fractions were centrifuged at 490× g for 5 minutes at 20° C. with acceleration of 9, deceleration of 9, and resuspended in DMEM (Gibco) and 10% Heat Inactivated Fetal Bovine Serum (Atlanta Bio) and Penicillin/Streptomycin. Cells were counted and centrifuged again at […] for 5 minutes at 20° C. with acceleration of 9, deceleration of 9. After centrifugation, cell were resuspended in DMEM (Gibco) and 10% Heat Inactivated Fetal Bovine Serum (Atlanta Bio) and Penicillin/Streptomycin containing 500 U/mL […] and plated at 1-2×10^6 cells/mL on 10 cm tissue culture plates. Cells were kept in 37° C., 5% CO2 in between feedings/harvest.
Cells were fed every 3-4 days by removing media and unattached cells, centrifuging at 490× g for 5 minutes at 20 C with acceleration of 9, deceleration of 9, and resuspending in fresh DMEM (Gibco) and 10% Heat Inactivated Fetal Bovine Serum (Atlanta Bio) and Penicillin/Streptomycin containing GM-CSF. Resuspended cells were seeded back onto 10 cm tissue culture plates and incubated at 37° C., 5% CO2. Differentiated macrophages were used for subsequent experiments.
Primary human PMBC derived macrophages were seeded on day 0 at 3.0E4 cells per well in 96-well microplates (ThermoFisher) in Dulbecco's Modified Eagle Medium (DMEM) (Gibco) supplemented with penicillin-streptomycin (Hyclone) and 10% heat inactivated fetal bovine serum (HI-FBS) (Atlanta Bio) and incubated overnight at 37° C., 5% CO2. On day 1, cells were washed once with 150 uL per well DPBS (Gibco) and treated with 75 uL of: • a. […]

Structure (SMILES)	IL-6 Measurements Mean (Donor 1, Conc. 0 X (baseline))	effect on LPS-induced IL-6 secretion (Donor 1)	IL-6 Measurements Mean (Donor 2, Conc. 0 X (baseline))	IL-6 Measurements Mean (Donor 2, Conc. 20 X, baseline subtracted)	effect on LPS-induced IL-6 secretion (Donor 2)	IL-6 Measurements Mean (Donor 3, Conc. 0 X (baseline))	effect on LPS-induced IL-6 secretion (Donor 3)	IL-6 Measurements Mean (Donor 1, Arginine Conc. 109 μM (baseline))	IL-6 Measurements Mean (Donor 1, Arginine Conc. 1088 μM, baseline subtracted)	IL-6 Measurements Mean (Donor 1, Arginine Conc. 2720 μM, baseline subtracted)	IL-6 Measurements Mean (Donor 1, Arginine Conc. 5440 μM, baseline subtracted)	IL-6 Measurements Mean (Donor 2, Arginine Conc. 109 μM (baseline))	IL-6 Measurements Mean (Donor 2, Arginine Conc. 1088 μM, baseline subtracted)	IL-6 Measurements Mean (Donor 2, Arginine Conc. 2720 μM, baseline subtracted)	IL-6 Measurements Mean (Donor 2, Arginine Conc. 5440 μM, baseline subtracted)	IL-6 Measurements Mean (Donor 3, Arginine Conc. 109 μM (baseline))	IL-6 Measurements Mean (Donor 3, Arginine Conc. 1088 μM, baseline subtracted)	IL-6 Measurements Mean (Donor 3, Arginine Conc. 2720 μM, baseline subtracted)	IL-6 Measurements Mean (Donor 3, Arginine Conc. 5440 μM, baseline subtracted)
CC(=O)N[C@@H](CS)C(=O)O [N-Acetyl Cysteine, N-acetylcysteine]	0	significantly reduced	−2.4E−15	−24.9999	significantly reduced	−9.5E−15	significantly reduced												
NC(=O)CC[C@H](N)C(=O)O [Glutamine]		increased			increased		significantly increased												
N=C(N)NCCC[C@H](N)C(=O)O [Arginine]		increased						0	−181.36	−186.57	357.4394	2.37E−15	−9.701	−13.6102	−12.4164	0	31.5786	−7.503	−6.81
